# Measurements published in patent US20030207813A1, “Retroviral protease inhibitor combinations” (priority 1995, published 2003).
# Tested on: NL4(R8Q,M46I)
# Assay: Viral isolate resistance assay per Markowitz et al., NL4(R8Q,M46I)
# Assay type: cell-based, HIV-1
# Details: Human immunodeficiency virus 1, read-out: Virus Isolate (EC50 nM) NL4(R8O, M46I)
# Text: RF represents the HIV-1 strain HIV-LRF and RFR represents a mixture of resistant strains obtained by selection of RF against the compound of Example 1. RFR comprises a mixture of viral strains having protease genotypes of G48V (14/40 clones); G48V, V82A (18/40 clones); G48V, L90S (2/40 clones); G48V, 154T, V82A (1/40 clones); G48M (1/40 clones); G48V, Q61H (1/40 clones); V13I, G48V (1/40 clones); G48V, F53L, V82A (1/40 clones); and G48V, V82A, C95Y (1/40 clones). RFR2 represents a mixture of resistant strains obtained by cloning RFR by three rounds of growth at limiting dilution. RFR2 comprises a mixture of viral strains having protease genotypes of G48V, V82A (13/15 clones); G17E, G48V, V82A (1/15 clones); and G48V, V82A, N37D, N88D (1/15 clones). RFRR represents a mixture of resistant strains obtained by selection of RF against the compounds of Examples 1 and 2 and then cloning by three rounds of growth at limiting dilution. RFRR comprises a mixture of viral strains having protease genotypes of G48V, 154T, L63P, V82A (7/9 clones); G48V, 154T, L63P, V82A, N88S (1/9 clones); and G48V, 154T, L63P, G73M, V82A (1/9 clones). SF162 represents the HIV-1 strain SF-162 and SF162R represents a mixture of resistant strains obtained by selection of SF162 against the compound of Example 1. SF162R comprises a mixture of viral strains having protease genotypes of M461, F53L, L63P, A71V, N88D (2/3 clones); and M46I, F53L, L63P, A71V, N88D, Q92R (1/3 clones). 89-959 represents the HIV-1 strain 89-959 and 89-959R represents a mixture of resistant strains obtained by selection of 89-959 against the compound of Example 2. 89-959R comprises a mixture of viral strains having protease genotypes of N88S (4/5 clones); and D25N, T26A, D30N, D37N, R41K, G73D, R87K, N88S (1/4 clones). NL4 represents the HIV-1 strain HIV-1NL4-3. NL4(G48V) represents a strain having a synthetically generated site-directed mutation in the protease from glycine to valine at amino acid position number 48. […]
compound,measurement,value
"CC(C)(C)NC(=O)[C@@H]1CN(Cc2cccnc2)CCN1C[C@@H](O)C[C@@H](Cc1ccccc1)C(=O)N[C@H]1c2ccccc2C[C@H]1O [Example 5, N-(2(R)-Hydroxy-1(S)-indanyl)-2(R)-phenylmethyl-4(S)-hydroxy-5-(1-(4-(3-pyridylmethyl)-2(S)-N′-(t-butylcarboxamido)-piperazinyl))-pentaneamide]",EC50,240 nM
